Source: patent publication US20260028365A1 (BIOGEN MA INC., priority 2022, published 2026)
Where two headings read alike, the source gives them in different places.

Assays:
JH2 domain of human Tyk2 = JH2 domain of human Tyk2 (Homo sapiens (Human), UniProt P29597); experiment: JH2 Biochemical Assay (TR-FRET probe displacement); format: binding
Tyk2 = Tyk2 (Homo sapiens (Human), UniProt P29597); experiment: pSTAT4 Cell Assay (MSD, NK92 cells); format: cell-based
[1] = TR-FRET probe displacement, JH2 domain of human Tyk2
[2] = JH2 domain of human Tyk2, TR-FRET probe displacement
[3] = TR-FRET probe displacement, JH2 domain

Chain of Tyk2 (P29597 whole entry, the tested form may be a part): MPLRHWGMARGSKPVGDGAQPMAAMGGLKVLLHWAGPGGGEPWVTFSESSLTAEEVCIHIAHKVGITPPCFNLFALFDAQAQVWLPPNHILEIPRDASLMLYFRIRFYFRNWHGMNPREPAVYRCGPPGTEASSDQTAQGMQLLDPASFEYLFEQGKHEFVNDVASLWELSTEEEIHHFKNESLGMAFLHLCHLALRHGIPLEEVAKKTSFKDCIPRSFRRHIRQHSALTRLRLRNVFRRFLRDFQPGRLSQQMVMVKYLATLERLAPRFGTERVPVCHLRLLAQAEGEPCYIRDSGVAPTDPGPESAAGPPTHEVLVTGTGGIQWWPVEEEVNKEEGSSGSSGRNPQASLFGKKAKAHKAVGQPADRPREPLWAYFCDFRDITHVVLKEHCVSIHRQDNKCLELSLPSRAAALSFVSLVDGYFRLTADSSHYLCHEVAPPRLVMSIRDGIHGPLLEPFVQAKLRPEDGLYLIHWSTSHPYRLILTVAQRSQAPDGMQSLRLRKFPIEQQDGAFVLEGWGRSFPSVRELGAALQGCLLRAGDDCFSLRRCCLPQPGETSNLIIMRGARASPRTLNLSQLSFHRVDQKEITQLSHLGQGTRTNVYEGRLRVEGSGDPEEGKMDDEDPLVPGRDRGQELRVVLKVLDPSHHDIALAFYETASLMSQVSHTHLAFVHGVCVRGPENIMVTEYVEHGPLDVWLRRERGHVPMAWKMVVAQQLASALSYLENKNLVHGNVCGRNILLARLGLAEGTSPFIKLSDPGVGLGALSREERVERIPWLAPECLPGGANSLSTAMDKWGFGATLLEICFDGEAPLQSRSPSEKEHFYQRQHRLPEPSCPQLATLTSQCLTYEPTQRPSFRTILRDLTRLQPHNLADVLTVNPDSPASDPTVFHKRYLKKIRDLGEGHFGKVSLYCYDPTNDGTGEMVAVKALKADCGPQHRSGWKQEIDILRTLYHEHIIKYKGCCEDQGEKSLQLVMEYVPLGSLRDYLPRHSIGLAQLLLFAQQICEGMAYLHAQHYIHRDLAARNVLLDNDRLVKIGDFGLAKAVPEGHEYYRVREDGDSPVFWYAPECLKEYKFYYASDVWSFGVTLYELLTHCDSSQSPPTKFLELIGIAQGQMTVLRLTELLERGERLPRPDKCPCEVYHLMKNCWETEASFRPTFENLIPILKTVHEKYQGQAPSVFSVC
Chain of JH2 domain of human Tyk2 (P29597 575-876): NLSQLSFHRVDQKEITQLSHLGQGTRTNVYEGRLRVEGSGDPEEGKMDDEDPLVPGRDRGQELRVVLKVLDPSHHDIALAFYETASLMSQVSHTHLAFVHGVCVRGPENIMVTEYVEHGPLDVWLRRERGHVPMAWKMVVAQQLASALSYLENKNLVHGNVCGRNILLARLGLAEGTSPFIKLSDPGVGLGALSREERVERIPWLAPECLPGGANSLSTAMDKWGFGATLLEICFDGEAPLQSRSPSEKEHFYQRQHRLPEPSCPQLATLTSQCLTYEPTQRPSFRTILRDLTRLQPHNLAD

Compound | IC50 (JH2 domain of human Tyk2; [1]) | IC50 (Tyk2; MSD) | IC50 (JH2 domain of human Tyk2; [2]) | IC50 (JH2 domain of human Tyk2; [3]) | IC50 (Tyk2)
COC(C)(C)Cn1ccc(-c2cnc(NC(C)=O)cc2Nc2cc(C)nc(C(C)(F)F)n2)n1 [Example 230, N-(4-((2-(1,1-difluoroethyl)-6-methylpyrimidin-4-yl)amino)-5-(1-(2-methoxy-2-methylpropyl)-1H-pyrazol-3-yl)pyridin-2-yl)acetamide] | ≤ 10 nM | ≤ 10 nM |  |  | 
COCn1ncc(-c2cnc(NC(C)=O)cc2Nc2ccnc(C(C)(F)F)n2)n1 [Example 711, N-(4-((2-(1,1-difluoroethyl)pyrimidin-4-yl)amino)-5-(2-(methoxymethyl)-2H-1,2,3-triazol-4-yl)pyridin-2-yl)acetamide] |  | 10 to 100 nM | ≤ 10 nM |  | 
CCOc1cnc(NC(C)=O)cc1Nc1cc(-c2cnn(CCOC)c2)nc(C(C)(F)F)n1 [Example 310, N-(4-((2-(1,1-difluoroethyl)-6-(1-(2-methoxyethyl)-1H-pyrazol-4-yl)pyrimidin-4-yl)amino)-5-ethoxypyridin-2-yl)acetamide] | ≤ 10 nM | 10 to 100 nM |  |  | 
CC(=O)Nc1cc(Nc2cc(C)nc(C34COC(C3)C4)n2)c(-c2ccc3c(n2)OCC(C)(C)O3)cn1 [Example 563, N-(4-((2-(2-oxabicyclo[2.1.1]hexan-4-yl)-6-methylpyrimidin-4-yl)amino)-5-(2,2-dimethyl-2,3-dihydrO[1,4]dioxino[2,3-b]pyridin-6-yl)pyridin-2-yl)acetamide] |  | 10 to 100 nM | ≤ 10 nM |  | 
CC(=O)Nc1cc(Nc2cccc(C(C)(F)F)n2)c(-c2ncc(F)cn2)cn1 [Example 186, N-(4-((6-(1,1-difluoroethyl)pyridin-2-yl)amino)-5-(5-fluoropyrimidin-2-yl)pyridin-2-yl)acetamide] | ≤ 10 nM | 10 to 100 nM |  |  | 
CC(=O)Nc1cc(Nc2cc(C)nc(C(C)(F)F)n2)c(-c2csc(C)n2)cn1 [Example 606, N-(4-((2-(1,1-difluoroethyl)-6-methylpyrimidin-4-yl)amino)-5-(2-methylthiazol-4-yl)pyridin-2-yl)acetamide] |  | ≤ 10 nM | ≤ 10 nM |  | 
CC(=O)Nc1cc(Nc2cccc(C3CCOC3)n2)c(-c2ccn(C)n2)cn1 (stereo not drawn) [Example 208, N-(5-(1-methyl-1H-pyrazol-3-yl)-4-((6-(tetrahydrofuran-3-yl)pyridin-2-yl)amino)pyridin-2-yl)acetamide] | ≤ 10 nM | 10 to 100 nM |  |  | 
COCCN(C)c1nnc(-c2cnc(NC(C)=O)cc2Nc2ccnc(C(C)(F)F)n2)s1 [Example 773, N-(4-((2-(1,1-difluoroethyl)pyrimidin-4-yl)amino)-5-(5-((2-methoxyethyl)(methyl)amino)-1,3,4-thiadiazol-2-yl)pyridin-2-yl)acetamide] |  |  |  | ≤ 10 nM | ≤ 10 nM
CC(=O)Nc1cc(Nc2cccc(C(C)(F)F)n2)c(-c2cc(=O)n(C)cn2)cn1 [Example 161, N-(4-((6-(1,1-difluoroethyl)pyridin-2-yl)amino)-5-(1-methyl-6-oxo-1,6-dihydropyrimidin-4-yl)pyridin-2-yl)acetamide] | ≤ 10 nM | 10 to 100 nM |  |  | 
CCOc1cnc(NC(C)=O)cc1Nc1cc(C)cc(C23COC(C2)C3)n1 [Example 95, N-(4-((6-(2-oxabicyclo[2.1.1]hexan-4-yl)-4-methylpyridin-2-yl)amino)-5-ethoxypyridin-2-yl)acetamide] | 10 to 100 nM | 100 to 1000 nM |  |  | 
CC(=O)Nc1cc(Nc2cc(C)nc(C(C)(F)F)n2)c(-c2cc3n(n2)CCNC3)cn1 [Example 282, N-(4-((2-(1,1-difluoroethyl)-6-methylpyrimidin-4-yl)amino)-5-(4,5,6,7-tetrahydropyrazolo[1,5-a]pyrazin-2-yl)pyridin-2-yl)acetamide] | ≤ 10 nM | ≤ 10 nM |  |  | 
CC(=O)Nc1cc(Nc2cccc(C(C)(F)F)n2)c(-c2ccc(=O)n(C)n2)cn1 [Example 158, N-(4-((6-(1,1-difluoroethyl)pyridin-2-yl)amino)-5-(1-methyl-6-oxo-1,6-dihydropyridazin-3-yl)pyridin-2-yl)acetamide] | ≤ 10 nM | ≤ 10 nM |  |  | 
COC1CCN(c2cnc(-c3cnc(NC(C)=O)cc3Nc3ccnc(C(C)(F)F)n3)cn2)C1 (stereo not drawn) [Example 867, N-(4-((2-(1,1-difluoroethyl)pyrimidin-4-yl)amino)-5-(5-(3-methoxypyrrolidin-1-yl)pyrazin-2-yl)pyridin-2-yl)acetamide] |  |  |  | ≤ 10 nM | 10 to 100 nM
CC(=O)Nc1cc(Nc2cccc(C(C)(F)F)n2)c(OCCO)cn1 [Example 140, N-(4-((6-(1,1-difluoroethyl)pyridin-2-yl)amino)-5-(2-hydroxyethoxy)pyridin-2-yl)acetamide] | ≤ 10 nM | ≤ 10 nM |  |  | 
CCc1cc(Nc2cc(NC(C)=O)ncc2-c2cnc(CN3CCCC3)cn2)nc(C(C)(F)F)n1 [Example 893, N-(4-((2-(1,1-difluoroethyl)-6-ethylpyrimidin-4-yl)amino)-5-(5-(pyrrolidin-1-ylmethyl)pyrazin-2-yl)pyridin-2-yl)acetamide] |  |  |  | ≤ 10 nM | ≤ 10 nM
COc1ccnc(COc2cnc(NC(C)=O)cc2Nc2cc(C)nc(C(C)(F)F)n2)n1 [Example 345, N-(4-((2-(1,1-difluoroethyl)-6-methylpyrimidin-4-yl)amino)-5-((4-methoxypyrimidin-2-yl)methoxy)pyridin-2-yl)acetamide] | 10 to 100 nM | 100 to 1000 nM |  |  | 
CC(=O)Nc1cc(Nc2cc(C)nc(C(C)(F)F)n2)c(OCc2ccc3c(c2)OCO3)cn1 [Example 484, N-(5-(benzo[d][1,3]dioxol-5-ylmethoxy)-4-((2-(1,1-difluoroethyl)-6-methylpyrimidin-4-yl)amino)pyridin-2-yl)acetamide] |  | 10 to 100 nM | ≤ 10 nM |  | 
CC(=O)Nc1cc(Nc2ccnc(C(C)(F)F)n2)c(-c2ccc(CN3C[C@@H]4C[C@H]3CO4)cn2)cn1 [Example 885, N-(5-(((1S,4S)-2-oxa-5-azabicyclo[2.2.1]heptan-5-yl)methyl)-4′-((2-(1,1-difluoroethyl)pyrimidin-4-yl)amino)-[2,3′-bipyridin]-6′-yl)acetamide] |  |  |  | ≤ 10 nM | ≤ 10 nM
CC(=O)Nc1cc(Nc2cc(C)nc(C(C)(F)F)n2)c(-c2nc3n(n2)CCN(C)C3)cn1 [Example 759, N-(4-((2-(1,1-difluoroethyl)-6-methylpyrimidin-4-yl)amino)-5-(7-methyl-5,6,7,8-tetrahydro[1,2,4]triazolo[1,5-a]pyrazin-2-yl)pyridin-2-yl)acetamide] |  |  |  | ≤ 10 nM | 10 to 100 nM
CC(=O)Nc1cc(Nc2cc(C)nc(C(C)(F)F)n2)c(OCc2ncccc2C)cn1 [Example 471, N-(4-((2-(1,1-difluoroethyl)-6-methylpyrimidin-4-yl)amino)-5-((3-methylpyridin-2-yl)methoxy)pyridin-2-yl)acetamide] |  | 100 to 1000 nM | 10 to 100 nM |  | 
COCc1ccc(-c2cnc(NC(C)=O)cc2Nc2cc(C)nc(C3CCOC3)n2)nc1 (stereo not drawn) [Example 568, N-(5-(methoxymethyl)-4′-((6-methyl-2-(tetrahydrofuran-3-yl)pyrimidin-4-yl)amino)-[2,3′-bipyridin]-6′-yl)acetamide] |  | ≤ 10 nM | ≤ 10 nM |  | 
CCc1cc(Nc2cc(NC(C)=O)ncc2-c2nnc(C)s2)nc(C(C)(F)F)n1 [Example 167, N-(4-((2-(1,1-difluoroethyl)-6-ethylpyrimidin-4-yl)amino)-5-(5-methyl-1,3,4-thiadiazol-2-yl)pyridin-2-yl)acetamide] | ≤ 10 nM | ≤ 10 nM |  |  | 
CC(=O)Nc1cc(Nc2ccnc(C(C)(F)F)n2)c(-c2cnn(C3CCC3)c2)cn1 [Example 579, N-(5-(1-cyclobutyl-1H-pyrazol-4-yl)-4-((2-(1,1-difluoroethyl)pyrimidin-4-yl)amino)pyridin-2-yl)acetamide] |  | ≥ 1000 nM | 100 to 1000 nM |  | 
CC(=O)Nc1cc(Nc2cc(C)nc(C(C)(F)F)n2)c(-c2ccc(S(C)(=O)=O)cn2)cn1 [Example 543, N-(4′-((2-(1,1-difluoroethyl)-6-methylpyrimidin-4-yl)amino)-5-(methylsulfonyl)-[2,3′-bipyridin]-6′-yl)acetamide] |  | ≤ 10 nM | ≤ 10 nM |  | 
COCC(C)COc1cnc(NC(C)=O)cc1Nc1cc(C)nc(C(C)(F)F)n1 (stereo not drawn) [Example 440, N-(4-((2-(1,1-difluoroethyl)-6-methylpyrimidin-4-yl)amino)-5-(3-methoxy-2-methylpropoxy)pyridin-2-yl)acetamide] |  | 10 to 100 nM | ≤ 10 nM |  | 
CC(=O)Nc1cc(Nc2ccnc(C(C)(F)F)n2)c(OC2CC2)cn1 [Example 38, N-(5-cyclopropoxy-4-((2-(1,1-difluoroethyl)pyrimidin-4-yl)amino)pyridin-2-yl)acetamide] | ≤ 10 nM | 100 to 1000 nM |  |  | 
COc1cnc(NC(C)=O)cc1Nc1cc(-c2cnn(CC3CC3)c2)nc(C(C)(F)F)n1 [Example 378, N-(4-((6-(1-(cyclopropylmethyl)-1H-pyrazol-4-yl)-2-(1,1-difluoroethyl)pyrimidin-4-yl)amino)-5-methoxypyridin-2-yl)acetamide] |  | 10 to 100 nM | ≤ 10 nM |  | 
CCc1cc(Nc2cc(NC(C)=O)ncc2-c2ncn(C)n2)nc(C(C)(F)F)n1 [Example 166, N-(4-((2-(1,1-difluoroethyl)-6-ethylpyrimidin-4-yl)amino)-5-(1-methyl-1H-1,2,4-triazol-3-yl)pyridin-2-yl)acetamide] | ≤ 10 nM | 10 to 100 nM |  |  | 
COc1ccc(-c2cnc(NC(C)=O)cc2Nc2cc(C)nc(C(C)(F)F)n2)nc1 [Example 599, N-(4′-((2-(1,1-difluoroethyl)-6-methylpyrimidin-4-yl)amino)-5-methoxy-[2,3′-bipyridin]-6′-yl)acetamide] |  | ≤ 10 nM | ≤ 10 nM |  | 
COc1cnc(NC(C)=O)cc1Nc1cc(-c2cn[nH]c2)nc(C(C)(F)F)n1 [Example 416, N-(4-((2-(1,1-difluoroethyl)-6-(1H-pyrazol-4-yl)pyrimidin-4-yl)amino)-5-methoxypyridin-2-yl)acetamide] |  | 100 to 1000 nM | ≤ 10 nM |  | 
